According to patent US12617752B2, “Rapidly metabolized lipid compound” (Beijing Jitai Life Sciences Ltd, priority 2023, dated 2026):

How the values were obtained:
[1] = Encapsulation efficiency of lipid nanoparticles (Quant-it RiboGreen RNA Assay); assay type: physicochemical; conditions: lipid nanoparticles with luciferase mRNA
Description: (§1) Lipid nanoparticles were prepared by (1) dissolving and mixing ionizable lipid compounds, cholesterol, phospholipids and polyethylene glycolated lipids in ethanol at (molar percentages) 50%, 38.5%, 10% and 1.5%, respectively; (2) dissolving the mRNA active ingredient in 25 mM sodium acetate solution (pH=4.5); (3) using an automated high-throughput microfluidic system to mix the organic phase containing the lipid mixture and the aqueous phase containing the mRNA component in the flow ratio range of 1:1 to 1:4 at a mixing speed of 10 mL/min to 18 mL/min; (4) the prepared lipid nanoparticles (N/P ratio=6) were diluted with phosphate buffer solution and the nanoparticle solutions were ultrafiltered to the original preparation volume using ultrafiltration tubes (purchased from Millipore) with a cut-off molecular weight of 30 kDa; and (5) the obtained nanoparticles were filtered through a sterile 0.2 μm filter membrane and then stored in a sealed glass vial at low temperature.
(§2) The particle size and particle size dispersity index (PDI) of the prepared lipid nanoparticles were measured using a Zetasizer Pro (purchased from Malvern Instruments Ltd) and a DynaPro NanoStar (purchased from Wyatt) dynamic light scattering instrument. The degree of RNA encapsulation by lipid nanoparticles was characterized by the Encapsulation Efficiency %, which reflects the degree of binding of lipid nanoparticles to RNA fragments. This parameter was measured by the method of Quant-it™ RiboGreen RNA Assay (purchased from Invitrogen). Lipid nanoparticle samples were diluted in TE buffer (10 mM Tris-HCl, 1 mM EDTA, pH=7.5). A portion of the sample solution was removed, to which 0.5% Triton (Triton X-100) was added, and then allowed to stand at 37° C. for 30 minutes. Immediately after the addition of RIBOGREEN® reaction solution, the fluorescence values were read on a Varioskan LUX multifunctional microplate reader (purchased from Thermofisher) at 485 nm for absorption and 528 nm for emission to give the encapsulation efficiency values.

[2] = Particle size and PDI of lipid nanoparticles by dynamic light scattering; assay type: physicochemical; conditions: lipid nanoparticles with luciferase mRNA; ionizable lipid/cholesterol/DSPC/DMG-PEG2000 50/38.5/10/1.5 mol%
Description: as §1, §2

C57BL/6 mice = test: In vivo delivery of luciferase mRNA lipid nanoparticles in mice (bioluminescence imaging); conditions: intravenous, single dose 0.5 mg/kg luciferase mRNA
Description: The delivery effect and safety of nanoparticles encapsulated with luciferase mRNA (Trilink, L-7202) in mice were evaluated. The test mice were SPF-grade C57BL/6 mice, female, 6-8 weeks old, weighing 18-22 g, and were purchased from SPF (Beijing) Biotechnology Co., Ltd. All animals were acclimatized for more than 7 days prior to the experiment, and had free access to food and water during the experiment. The conditions include alternating light and dark for 12/12 h, the indoor temperature of 20-26° C. and the humidity of 40-70%. The mice were randomly grouped. The lipid nanoparticles encapsulated with luciferase mRNA prepared above were injected into mice by intravenous administration at a single dose of 0.5 mg/kg mRNA, and the mice were subjected to in vivo bioluminescence assay using a Small Animal In Vivo Imaging System (IVIS LUMINA III, purchased from PerkinElmer) at 6 h after administration. The assay was performed as follows: D-luciferin solution was prepared in saline at a concentration of 15 mg/mL, and each mouse was given the substrate by intraperitoneal injection. At ten minutes after administration of the substrate, the mice were anesthetized in an anesthesia chamber with isoflurane at a concentration of 2.5%. The anesthetized mice were placed in IVIS for fluorescence imaging, and data acquisition and analysis were performed on the concentrated distribution area of fluorescence.
The in vivo delivery efficiency of lipid nanoparticle carriers was expressed as the mean values of fluorescence intensity and total photon count in different animals within the same subject group, as shown in Table 5-Table 11. Higher values of fluorescence intensity and total photon count indicate higher in vivo delivery efficiency of this mRNA fragment by lipid nanoparticles. The lipid nanoparticles containing the cationic lipids of the present disclosure have good in vivo delivery efficiency.

| SMILES | Encapsulation efficiency (%) [1] | Particle size (nm) [2] | Particle-size distribution (PDI) [2] | Total photon count in vivo at 6 hours after administration (Total Flux) (C57BL/6 mice) |
| --- | --- | --- | --- | --- |
| CCCCCCCCCOC(=O)C(C)(C)CCCCCCN(CCO)CCCCCCOC(=O)OCCC(CCCCCC)CCCCCC [41a] | 94.51% | 114.03 nm | 0.13 | 1.11E+11 |
| CCCCCCCCCCC(=O)OCC(C)(C)CCCCCN(CCCO)CCCCCCC(=O)OCC(CCCCCCCCC)CCCCCCCCC [85b] | 95.44% | 92.14 nm | 0.17 | 9.61E+10 |
| CCCCCCCCCC(=O)OCC(C)(C)CCCCCN(CCCO)CCCCCCC(=O)OCCC(CCCCCCC)CCCCCCC [77b] | 95.88% | 93.16 nm | 0.16 | 9.72E+10 |
| CCCCCCCCCCC(=O)OCCC(C)(C)CCCCN(CCCCO)CCCCCCCC(=O)OC(CCCCCCCCC)CCCCCCCCC [55b] | 94.65% | 90.37 nm | 0.11 | 1.02E+11 |
| CCCCCCCCCC(=O)OCC(C)(C)CCCCCN(CCO)CCCCCCOC(=O)OCC(CCCCCCCC)CCCCCCCC [33b] | 94.85% | 85.80 nm | 0.15 | 8.23E+10 |
| CCCCCCCCCC(=O)OCCCC(C)(C)CCCN(CCCO)CCCCCCC(=O)OCCC(CCCCCCC)CCCCCCC [92b] | 92.47% | 99.90 nm | 0.15 | 3.74E+10 |
| CCCCCCCCCCCOC(=O)CCCCC(C)(C)CCN(CCO)CCCCCCCC(=O)OC(CCCCCCCCCC)CCCCCCCCCC [64a] | 96.72% | 86.99 nm | 0.15 | 9.82E+10 |
| CCCCCCCCCC(=O)OCC(C)(C)CCCCCN(CCCCO)CCCCCCC(=O)OCC(CCCCCCCC)CCCCCCCC [69b] | 93.85% | 99.05 nm | 0.13 | 1.52E+11 |
| CCCCCCCCCCC(=O)OCCC(C)(C)CCCCN(CCCCO)CCCCCCCC(=O)OCC(CCCCCCCC)CCCCCCCC [101b] | 81.76% | 126.00 nm | 0.10 | 5.39E+10 |
| CCCCCCCCCCC(=O)OCC(C)(C)CCCCCN(CCCCCCCC(=O)OC(CCCCCCCCC)CCCCCCCCC)C(=O)SCCCCN(C)C [40b] | 96.74% | 97.10 nm | 0.11 | 3.70E+10 |
| CCCCCCCCCCC(=O)OCC(C)(C)CCCCCN(CCCO)CCCCCCCCC(=O)OCC(CCCCCCC)CCCCCCC [79b] | 92.85% | 99.27 nm | 0.15 | 1.62E+11 |
| CCCCCCCCCCCOC(=O)CCCCCN(CCO)CCCCC(C)(C)CCC(=O)OC(CCCCCCCC)CCCCCCCC [62a] | 89.88% | 98.07 nm | 0.17 | 1.20E+10 |
| CCCCCCCCCC(=O)OCC1(CCCCCN(CCO)CCCCCCCC(=O)OC(CCCCCCCCC)CCCCCCCCC)CC1 [53b] | 91.92% | 125.03 nm | 0.42 | 1.00E+11 |
| CCCCCCCCCOC(=O)CCCCCCCN(CCO)CCCCCCC(C)(C)C(=O)OCCC(CCCCCC)CCCCCC [7a] | – | – | – | 5.26E+10 |
